Test results reported in patent US20250109134A1 (Ascentage Pharma (Suzhou) Co., Ltd., priority 2022, published 2025).
Where a name gives a salt, the structure may show the parent alone.

What was measured:
Type in all cases: physicochemical
[1] = Stability study, content and related substances (TRS, total impurity content) by HPLC; details: for chemical stability (HPLC, TRS total impurity content): open, 60° C., RT/92.5% RH, RT/75% RH, 40° C./75% RH, up to 30 days
Description: In the present invention, the HPLC (high performance liquid chromatography) test parameters are set as follows:
Then, the sample flasks were opened to air (sealed with aluminum foil punctured with small holes) and placed in constant temperature and humidity cabinets at high temperature (60° C.), at room temperature and high humidity ([…]), at RT/75% RH, and at 40° C./75% RH for 30 days, respectively, […]

[2] = XRPD characterization (crystallinity), summary evaluation; details: summary of forms
From the text: In the present invention, the XRPD test parameters are set as follows: […]

[3] = Dynamic vapor sorption (DVS) hygroscopicity test; details: for hygroscopic weight gain (DVS): 25° C. and 80% RH; for hygroscopicity (DVS), in words: 80% RH; for crystalline form before and after hygroscopic test (XRPD after DVS): XRPD of sample after DVS
From the text: In the present invention, the DVS test parameters are set as follows: […]

[4] = Polymorph screening (suspension, anti-solvent, gas-liquid diffusion, slow volatilization methods), resulting form by XRPD; details: for Crystalline form: suspension method; for Crystalline form results 25° C. / Crystalline form results 50° C.: suspension, from crystalline form B
Description: The sample was quickly centrifuged (6000 rpm, 5 min) to remove a supernatant. The resulting precipitate was subjected to vacuum drying (40° C., −0.1 MPa) for 20 h, followed by physical characterization.
The resulting precipitate was subjected to vacuum drying at 40° C. for 20 h, followed by physical characterization.
No clear solution was obtained, and the sample was still undissolved after 1 mL of solvent was added. Then, 500 μL of poor solvent (acetone, ACN, MeOH, EtOAc, THE, or […]) was added, and 40 mg of the sample was added to perform an experiment by a suspension method. All suspension samples were stirred at 50° C. for 2 days and quickly centrifuged (6000 rpm, 5 min) to remove a supernatant. The resulting solid was subjected to vacuum drying at 40° C. for 20 h, followed by physical characterization.
The compound of formula I was subjected to polymorph screening with DCM as a good solvent and with MeOH, EtOH, THE, or EA as an anti-solvent, and was dissolved in both DCM and MeOH systems. The suspension sample was stirred for 2 days and quickly centrifuged to remove a supernatant. The resulting precipitate was subjected to vacuum drying at 25° C. for 20 h, followed by physical characterization.
The resulting precipitate was subjected to vacuum drying at room temperature for 20 h, followed by physical characterization.
The resulting precipitate was subjected to vacuum drying for 20 h.
Sonication was performed for 1 min to obtain a clear solution, which was filtered through a 0.22 μm filter membrane and aliquoted into seven 8 mL glass flasks. An anti-solvent was added until precipitation occurred. The sample was stirred at room temperature for 1 day and quickly centrifuged. The resulting solid precipitate was subjected to vacuum drying.
Then, an anti-solvent was added until precipitation occurred, and the mixture was stirred at room temperature overnight and quickly centrifuged (6000 rpm, 6 min) to remove a supernatant. The resulting precipitate was subjected to vacuum drying for 20 h.
Then, the solution was added to a 20 mL glass flask containing 2 mL of an anti-solvent (shown in the following table), and the flask was tightly capped at room temperature and placed in a fume hood for diffusion. When precipitation occurred, the flask was taken out, and the resulting precipitate was subjected to vacuum drying for 20 h.
The flask placed in a fume hood at room temperature for diffusion. When precipitation occurred, the flask was taken out, and the resulting precipitate was subjected to vacuum drying for 20 h.
The mixture was stirred at 50° C. or room temperature for 6 days and quickly centrifuged (6000 rpm, […]) to remove a supernatant. The resulting precipitate was subjected to vacuum drying for 20 h.

[5] = Stability study, solid form by XRPD after open storage at high temperature / high humidity; details: open, 60° C.; RT/92.5% RH; RT/75% RH; 40° C./75% RH; 30 days
Description: In the present invention, the XRPD test parameters are set as follows:
Then, the sample flasks were opened to air (sealed with aluminum foil punctured with small holes) and placed in constant temperature and humidity cabinets at high temperature (60° C.), at room temperature and high humidity (RT/92.5% RH), at RT/75% RH, and at 40° C./75% RH for 30 days, respectively, and samples were taken at days 5, 10 and 30 for XRPD and HPLC detection.

[6] = solvent Acetone-H2O = 1-2, 2 days

CC(C)N1Cc2cc(C(F)(F)F)ncc2-c2cnc(NCc3c(F)ccc4c3CCO4)n3cnc(c23)C1=O.Cl [Crystalline form A of hydrochloride salt]
TRS(%) ([1]; 40° C./75RH %-5 d, open storage): 0.30% | TRS(%) ([1]; 40° C./75RH %- 10 d, open storage): 0.28% | TRS(%) ([1]; 40° C./75RH %- 30 d, open storage): 0.28% | TRS(%) ([1]; 60° C.-5 d, open storage): 0.28% | TRS(%) ([1]; 60° C.-10 d, open storage): 0.34% | TRS(%) ([1]; 60° C.-30 d, open storage): 0.27% | TRS(%) ([1]; Initial, TRS = total impurity content, HPLC): 0.31% | TRS(%) ([1]; RT/75% RH 7 d, open storage): 0.26% | TRS(%) ([1]; RT/75% RH 10 d, open storage): 0.26% | TRS(%) ([1]; RT/75% RH 30 d, open storage): 0.37% | TRS(%) ([1]; RT/90RH %-5 d, open storage): 0.28% | TRS(%) ([1]; RT/90RH %-10 d, open storage): 0.26% | TRS(%) ([1]; RT/90RH %-30 d, open storage): 0.27%

CC(C)N1Cc2cc(C(F)(F)F)ncc2-c2cnc(NCc3c(F)ccc4c3CCO4)n3cnc(c23)C1=O.CS(=O)(=O)O [Methanesulfonate salt Crystalline form A]
Evaluation results: crystallinity [2]: High crystallinity

CC(C)N1Cc2cc(C(F)(F)F)ncc2-c2cnc(NCc3c(F)ccc4c3CCO4)n3cnc(c23)C1=O.O=S(=O)(O)O [Sulfate Crystalline form A]
Evaluation results: hygroscopicity ([3]; summary of forms): Slight hygroscopicity

CC(C)N1Cc2cc(C(F)(F)F)ncc2-c2cnc(NCc3c(F)ccc4c3CCO4)n3cnc(c23)C1=O [compound of formula I]
Crystalline form ([4]; solvent DCM/EA = 1-1, stirred 2 days): Crystalline form A | Crystalline form ([4]; solvent DCM/EtOH = 2-1, stirred 2 days): Crystalline form A | Crystalline form ([4]; solvent DCM/THF = 1-1, stirred 2 days): Crystalline form A | Crystalline form ([4]; solvent DCM, stirred 2 days): Crystalline form A | Crystalline form ([4]; solvent DMF/H2O = 1/3, 50° C., 2 days): Crystalline form B + DMF solvate | Crystalline form ([4]; solvent DMF, 50° C., 2 days): Crystalline form B + DMF solvate | Crystalline form ([4]; solvent NMP/ACN = 1/3, 50° C., 2 days): N-methyl-2-pyrrolidone solvate | Crystalline form ([4]; solvent NMP/EtOAc = 1/3, 50° C., 2 days): N-methyl-2-pyrrolidone solvate | Crystalline form ([4]; solvent NMP/H2O = 1/3, 50° C., 2 days): Crystalline forms A + B | Crystalline form ([4]; solvent NMP/MeOH = 1/3, 50° C., 2 days): N-methyl-2-pyrrolidone solvate | Crystalline form ([4]; solvent NMP/THF = 1/3, 50° C., 2 days): N-methyl-2-pyrrolidone solvate | Crystalline form ([4]; solvent NMP/acetone = 1/3, 50° C., 2 days): N-methyl-2-pyrrolidone solvate | Crystalline form ([4]; solvent NMP, 50° C., 2 days): N-methyl-2-pyrrolidone solvate

CC(C)N1Cc2cc(C(F)(F)F)ncc2-c2cnc(NCc3c(F)ccc4c3CCO4)n3cnc(c23)C1=O [crystalline form A of the compound of formula I]
chemical stability (HPLC, TRS total impurity content) [1]: good chemical stability | hygroscopic weight gain (DVS) [3]: 0.44% | hygroscopicity (DVS), in words [3]: slight hygroscopicity | change in the crystalline form after storage (XRPD), physical stability [5]: no change in the crystalline form

CC(C)N1Cc2cc(C(F)(F)F)ncc2-c2cnc(NCc3c(F)ccc4c3CCO4)n3cnc(c23)C1=O [crystalline form A of the hydrochloride salt of the compound]
chemical stability (HPLC, TRS total impurity content) [1]: good chemical stability | hygroscopic weight gain (DVS) [3]: 0.31% | hygroscopicity (DVS), in words [3]: slight hygroscopicity | crystalline form before and after hygroscopic test (XRPD after DVS) [3]: did not change | change in the crystalline form after storage (XRPD), physical stability [5]: no change in the crystalline form

CC(C)N1Cc2cc(C(F)(F)F)ncc2-c2cnc(NCc3c(F)ccc4c3CCO4)n3cnc(c23)C1=O [crystalline form A of the methanesulfonate salt of the compo]
hygroscopic weight gain (DVS) [3]: 0.84% | hygroscopicity (DVS), in words [3]: slight hygroscopicity | crystalline form before and after hygroscopic test (XRPD after DVS) [3]: did not change | change in the crystalline form after storage (XRPD), physical stability [5]: no change in the crystalline form

CC(C)N1Cc2cc(C(F)(F)F)ncc2-c2cnc(NCc3c(F)ccc4c3CCO4)n3cnc(c23)C1=O [crystalline form A of the sulfate salt of the compound of fo]
hygroscopic weight gain (DVS) [3]: 1.43% | hygroscopicity (DVS), in words [3]: slight hygroscopicity | crystalline form before and after hygroscopic test (XRPD after DVS) [3]: did not change | change in the crystalline form after storage (XRPD), physical stability [5]: no change in the crystalline form

CC(C)N1Cc2cc(C(F)(F)F)ncc2-c2cnc(NCc3c(F)ccc4c3CCO4)n3cnc(c23)C1=O [crystalline form B of the compound of formula I]
chemical stability (HPLC, TRS total impurity content) [1]: good chemical stability | hygroscopic weight gain (DVS) [3]: 0.84% | hygroscopicity (DVS), in words [3]: slight hygroscopicity | change in the crystalline form after storage (XRPD), physical stability [5]: no change in the crystalline form

CC(C)N1Cc2cc(C(F)(F)F)ncc2-c2cnc(NCc3c(F)ccc4c3CCO4)n3cnc(c23)C1=O [crystalline form B]
Crystalline form results 25° C. ([4]; solvent ACN, 2 days): Crystalline form A | Crystalline form results 50° C. ([4]; solvent ACN, 2 days): Crystalline form A | Crystalline form results 25° C. ([4]; solvent ACN—H2O = 1-1, 2 days): Crystalline form A | Crystalline form results 50° C. ([4]; solvent ACN—H2O = 1-1, 2 days): Crystalline form A | Crystalline form results 25° C. [4, 6]: Crystalline form B | Crystalline form results 50° C. [4, 6]: Crystalline form B | Crystalline form results 25° C. ([4]; solvent Acetone, 2 days): Crystalline form B | Crystalline form results 50° C. ([4]; solvent Acetone, 2 days): Crystalline form B | Crystalline form results 50° C. ([4]; solvent EtOAc, 2 days): Crystalline form B | Crystalline form results 25° C. ([4]; solvent EtOH, 2 days): Crystalline form B | Crystalline form results 50° C. ([4]; solvent EtOH, 2 days): Crystalline form A | Crystalline form results 25° C. ([4]; solvent EtOH—H2O 1-1, 2 days): Crystalline form B | Crystalline form results 50° C. ([4]; solvent EtOH—H2O 1-1, 2 days): Crystalline form A | Crystalline form results 25° C. ([4]; solvent EtOH—H2O = 3-1, 2 days): Crystalline form B | Crystalline form results 50° C. ([4]; solvent EtOH—H2O = 3-1, 2 days): Crystalline form A | Crystalline form results 25° C. ([4]; solvent H2O, 2 days): Crystalline form B | Crystalline form results 50° C. ([4]; solvent H2O, 2 days): Crystalline form B | Crystalline form results 25° C. ([4]; solvent Heptane, 2 days): Crystalline form B | Crystalline form results 25° C. ([4]; solvent MTBE, 2 days): Crystalline form E | Crystalline form results 50° C. ([4]; solvent MTBE, 2 days): Crystalline form G | Crystalline form results 25° C. ([4]; solvent MeOH, 2 days): Crystalline form A | Crystalline form results 50° C. ([4]; solvent MeOH, 2 days): Crystalline form A | Crystalline form results 25° C. ([4]; solvent MeOH—H2O 1-1, 2 days): Crystalline form F | Crystalline form results 50° C. ([4]; solvent MeOH—H2O 1-1, 2 days): Crystalline form A | Crystalline form results 25° C. ([4]; solvent MeOH—H2O = 3-1, 2 days): Crystalline form A | Crystalline form results 25° C. ([4]; solvent THF, 2 days): Crystalline form B | Crystalline form results 50° C. ([4]; solvent THF, 2 days): Crystalline form B | Crystalline form results 25° C. ([4]; solvent Toluene, 2 days): Toluene solvate

CC(C)N1Cc2cc(C(F)(F)F)ncc2-c2cnc(NCc3c(F)ccc4c3CCO4)n3cnc(c23)C1=O.Cc1ccc(S(=O)(=O)O)cc1 [p-toluenesulfonate Crystalline form A]
Evaluation results: crystallinity [2]: High crystallinity
